{"source": "patent US11103497B2", "about": "“Treatment of imatinib resistant leukemia” (Wyeth LLC, priority 2007, dated 2021)", "origin": "cited, not measured here", "test_system": "BcrAbl T315I", "conditions": "patients with amino acid mutation T315I in BcrAbl; cited from earlier work", "data": [{"smiles": "Cc1cn(-c2cc(NC(=O)c3ccc(C)c(Nc4nccc(-c5cccnc5)n4)c3)cc(C(F)(F)F)c2)cn1", "note": "[nilotinob]", "values": [{"measurement": "effectiveness against CML", "result": "not effective"}]}]}
